Consider 90 molecules from a melting point compilation (Tetko et al.; mined from patent text by program, amines drawn as free bases though some values may be those of a salt).

Where only a bound is given, the exact number is not on record here.

As to `O=Cc1ccccc1OC(=O)C(=O)Oc1ccccc1C=O`, the melting point – broadly, the temperature of the solid-liquid transition – was in the range of 134 to 135 °C. For `O=C(O)c1cc2cc(Cl)ccc2nc1N[C@@H](CC1CCCCC1)C(=O)O` the value was 160 to 168 °C; for `Cc1nc(C)c(Cl)c(NCc2nccc(SCCCCSCc3ccncc3)c2C)n1`, 104 to 106 °C. `CN(C(=O)Nc1cccnc1)c1ccc2c(ccn2C)c1` showed a melting point of 168 to 170 °C. With `COc1ccccc1C1(O[Si](C)(C)C)C(=O)Nc2cc(C)c(Cl)cc21` (stereo not given) the figure was 227 °C; with `CCc1oc2ccccc2c1C(=O)N(C)Cc1ccc2c(Br)c(O)ccc2c1`, 176 to 178 °C; with `OC(C1=NCCN1)(c1ccccc1)c1cccc(Cl)n1` (stereo not given), 154 to 156 °C. The molecule `CC(C)(C)c1cc(SCCC(=O)NC2CCC3CC2C3(C)C)cc(C(C)(C)C)c1O` (stereo not given) had a melting point of 152 to 154 °C. With `C=CCNc1nc(NCCCCC)c2scc(C)c2n1` the figure was 64 to 65 °C. For `CNc1cccc(OCc2ccccc2)c1N` the value was 79 to 81 °C; for `Cc1ccc(S(=O)(=O)c2c(O)c3ccccc3n(C)c2=O)cc1`, 191 °C. `CS(=O)(=O)Oc1ccc(N2CC(COc3ccc(C(=O)O)cc3)CC2=O)cc1` (stereo not given) gave a melting point of 199 to 201 °C. Molecule `Cc1nnc(-c2nsc3ccc([N+](=O)[O-])cc23)s1` returned a melting point of 239 to 240 °C. With `Cc1cc(-c2nnc3c4ccccc4c(OCc4ccc5ccccc5n4)nn23)no1` the figure was 223 to 225 °C; with `CCC(=O)Nc1snc(N(CC)CC)c1C#N`, 188 to 189 °C. For the molecule `COc1ccc(CN2c3ccc(Cl)cc3C=C(C(=O)O)C2C(F)(F)F)cc1` (stereo not given), the melting point is 196 to 197 °C. As to `COc1cc(Nc2c(C#N)cnc3c2C=C2N=CN=C2C3)cc(OC)c1OC`, the melting point was more than 260 °C. With `C#CC(CC(=O)OC)c1ccc(OC)c(OC2CCCC2)c1` (racemic) the figure was 41 to 42 °C; with `COc1cc(Nc2c(C#N)cnc3cc(/C=C/CCN4CCOCC4)c(OC)cc23)c(Cl)cc1Cl`, 141 to 143 °C. With `CCCCNc1ccc(-c2cc3ccccc3o2)cc1` the figure was 113 to 115 °C.

As to `CCn1c(=O)n(O)c(=O)c2c(F)c(F)c(N3CCCC3)c(F)c21`, the melting point fell in the range of 223 to 225 °C.

Regarding `Cc1ccc(S(=O)(=O)NC(C)(C)C(C)C)cc1`, the melting point lay within 80 to 89 °C. Consider `Cc1ccc(S(=O)(=O)OCC2Cc3cccc(O)c3O2)cc1` (stereo not given), for which the melting point is 122 to 125 °C. `O=C(Nc1ccc(Cl)cc1)NS(=O)(=O)c1ccc2c(c1)CCC2` returned a melting point of 169 to 172 °C. `CCN(CC)c1ccc(/C=C/C(=O)CC(=O)/C=C/c2ccc3cc[nH]c3c2)cc1`: the melting point is 110 to 118 °C. For `C=CC(O)c1cc(OC)c2oc(-c3ccc(O)c(OC)c3)c(C)c2c1` (stereo not given) the value was 164 to 167 °C.

For `Cc1cc(C)n(-c2nc(-c3ccc(Cl)cc3)c(CCC(=O)O)o2)n1`, the melting point was in the range of 201 to 202 °C.

`COc1ccc(CCCCNC(=O)CCl)cc1` displayed a melting point of 99 to 100 °C.

On to `c1cc(-c2nccs2)cc(-n2cnc3cc(-c4ccon4)ccc32)c1`, for which the melting point fell in the range of 157 to 158 °C. With `ClCc1ccc(-c2ccccc2)nc1` the figure was 95 to 96 °C. With `O=C(CC1(c2ccccc2)CCCCC1)C(=O)Nc1ccc2c(c1)COC2=O` the figure was 120 to 123 °C; with `CCCCCS(=O)(=O)NC(=O)CCc1ccc(OCCCOC)cc1Oc1ncc(C(F)(F)F)cc1Cl`, 115 °C; with `CS(=O)c1cnc2ccsc2c1O` (stereo not given), 271 to 273 °C. In turn, `COC(=O)[C@@H]1CSCN1C(=O)/C=C\Sc1ccccc1` returned a melting point of 126 to 128 °C. In the case of `C=CCSc1ccc(Oc2ccc(C)cc2)nn1`, the melting point lay within 115 to 117 °C.

On to `CON=Cc1nc2c(N)nc3cc(-c4cccc(CS(N)(=O)=O)c4)ccc3c2s1`, for which the melting point was 254 to 256 °C. For `CCOC(OCC)P(=O)(O)CCCN(C)Cc1ccc(Cl)cc1` the value was 170 °C; for `Cc1cccc(C(=O)NCN2CCN(c3ccccc3C#N)CC2)c1`, 131 to 133 °C; for `Cc1cccc2c1C(=O)N(C)CC(=O)N2`, 200 to 202 °C.

`Cn1cc(-c2cc3cccnc3[nH]2)c2cc(N)ccc21` yielded a melting point of 247 to 248 °C.

In turn, `Cc1cc(CN2CC(=O)N(c3cnn(Cc4c(C)noc4C)c3)C2=O)n(C)n1` showed a melting point of 145 to 146 °C. With `O=c1c2c(N3CCNCC3)cc(Cl)cc2n(Cc2ccccc2)c(=O)n1Cc1ccccc1F` the figure was 98 to 109 °C. `Cc1c(C(=O)c2ccccc2)cccc1[N+](=O)[O-]`: the melting point was 42 °C. For `O=C(c1ccc2c(c1)OCCO2)c1ccc2noc(-c3cccc(Cl)c3)c2c1`, the melting point turned out to be 195 °C.

Molecule `CCn1cnc2c(Nc3ccc(NC(=O)OC)cc3)nc(N[C@H]3CC[C@H](O)CC3)nc21` displayed a melting point of 131 to 135 °C. For `CCCn1c(-n2nc(-c3c(-c4ccccc4)nn4ccccc34)ccc2=O)cc(=O)n(CC(=O)OC)c1=O`, the melting point lay in the range of 191 to 195 °C. With `COc1ccc(N2CCN(Cc3ccc([N+](=O)[O-])cc3)CC2)cc1` the figure was 130 to 132 °C; with `CCN(CC)CCOCCC1CCN(C(=O)N2c3ccccc3C(=O)Nc3cccnc32)CC1`, 119 to 120 °C. With `c1csc(NCCc2c[nH]cn2)n1` the figure was 198 to 199 °C; with `Clc1ccc(CN2CC=C(/C=C/c3ccc4c(c3)OCO4)CC2)cc1`, 122 to 124 °C; with `O=C(Nc1cccnc1)N1CCc2cc(Cl)ccc21`, 204 to 205 °C. In turn, `Cc1ccc(-c2cc(CNc3cc(CNc4cc(-c5ccc(C)cc5)[nH]n4)n[nH]3)n[nH]2)cc1` had a melting point of 167 °C. For `CS(=O)(=O)c1ccc(-c2[nH]nc(OC3CCCCC3=O)c2-c2ccc(F)cc2)cc1` (stereo not given) the value was 113 to 116 °C; for `COc1cc2ncnc(N3CCN(C(=O)Nc4ccc5[nH]ccc5c4)CC3)c2cc1OC`, 209 to 210 °C. `COC(=O)CS(=O)(=O)CCCCN(c1cnc(-c2ccccc2)c(-c2ccccc2)n1)C(C)C` gave a melting point of 123 to 125 °C. In turn, `CC(C)(C)OC(=O)N[C@H]1C=C[C@@H](CO)C1` yielded a melting point of 68 to 70 °C. With `CC(=O)OC1CSC(Oc2cncc(-c3ccc(F)cc3Cl)c2)C(OC(C)=O)C1OC(C)=O` (stereo not given) the figure was 115 °C; with `O=C1CCC2(CC2)C(=O)C1`, 116 to 118 °C. With `CCOC(=O)C1C=NC(C)=C(c2ccccc2)C1=O` (stereo not given) the figure was 178 to 180 °C; with `COc1ccc(CCCOCCn2cnc3c(N)nc4ccccc4c32)cc1`, 116 to 118 °C; with `Cc1c(N)c(C#N)cc(F)c1F`, 114 to 116 °C. In turn, `CN(C)C1(c2ccccc2)CCC(c2cc3ccccc3n2S(=O)(=O)c2ccccc2)CC1` (stereo not given) came in with a melting point of 139 to 142 °C. For `CC(C)(C)OC(=O)c1ccc(CN(CCc2ccccc2)C(=O)OC(C)(C)C)c(N)c1` the value was 105 to 106 °C. Turning to `O=C(C1=C(O)C(=O)N(C2CC2)C1)c1ccc(Cc2ccc(F)cc2)o1`, the melting point lay within 158 to 159 °C. Take `O=S(=O)(Nc1nccnc1OCc1ccccn1)c1cccc(Cl)c1Cl`: the melting point was in the range of 167 to 168 °C. For `COC(=O)c1cc(SC#N)c(N)cc1OC` the value was 184 to 185 °C; for `O=C(O)Cc1ccc2c(c1)CC(CCNS(=O)(=O)c1ccc(Cl)cc1)C2` (stereo not given), 146 to 147 °C. The molecule `Cn1nc(-c2ccc(OCCCCl)cc2)ccc1=O` registered a melting point of 186 to 187 °C.

For the molecule `N#CC1=C(c2ccccc2)Nc2n[nH]cc2C1c1ccccc1[N+](=O)[O-]` (stereo not given), the melting point came to 221 °C.

For the molecule `N#CC(C(=O)Nc1ccccc1)C(=O)c1nn(-c2ccccc2)c2c1CSc1ccc(N=CN3CCOCC3)cc1-2` (stereo not given), the melting point lay within 205 to 210 °C. For `COc1cc(OC)c(C(=O)CBr)cc1C(=O)O` the value was 236 °C. With `COc1ccc(C(C)=O)cc1S(N)(=O)=O` the figure was 200 to 201 °C; with `CCCc1ncc2cc(OC)nc(SC)n12`, 98 to 100 °C; with `COc1ccc(-c2ccc(C=O)c3ccccc23)cc1F`, 137 to 138 °C.

The molecule `O=C(OC1CCN(c2ncc(-c3ccccc3Cl)cn2)CC1)N1CCC(O)CC1` returned a melting point of 124 to 126 °C. With `O=Cc1cc(F)cc(Br)c1F` the figure was 36 to 38 °C. With `C[C@@H](Nc1ncnc2[nH]c(-c3ccc(CN4CCN(C(=O)OC(C)(C)C)CC4)cc3)cc12)c1ccccc1` the figure was 244 to 246 °C; with `O=C(Nc1n[nH]c(=S)s1)NC(Cc1ccccc1)C(=O)NCc1cccnc1` (stereo not given), 99 to 101 °C. With `Fc1ccc(F)c(CN2CCNc3ncc(I)cc32)c1Cl` the figure was 156 to 157 °C; with `Clc1cc(NC23CC4CC(CC(C4)C2)C3)nc(NC23CC4CC(CC(C4)C2)C3)n1`, 232 to 236 °C; with `Nc1ncc2c(n1)-c1ccc(-c3ccccc3)cc1C(c1ccc(Cl)c(Cl)c1)C2` (stereo not given), 186 to 187 °C. Molecule `COC(=O)c1nc(-c2ccc(CO)cc2)cc(N)c1Cl` came in with a melting point of 138 to 139 °C. For `Cc1ccc(C2CCN(C(=O)Nc3ccc4nc(CN5C(C)(C)CCCC5(C)C)ccc4c3)CC2)cc1` the value was 200 to 202 °C; for `CCCCCCCCOc1cnc(-c2ccc(CCCCCC(C)OC(C)=O)cc2)nc1` (single isomer, unassigned; (+)), 73 to 74 °C; for `CS(=O)(=O)c1ccc(-c2cccn2-c2ccc(Cl)c(Cl)c2)cc1`, 139 to 142 °C.

As to `CCOC(=O)c1cnc2cc(NC(C)=O)c(F)cc2c1O`, the melting point worked out at 320 °C. `CC1(C)Oc2ccc(C#N)cc2[C@@H](N2CC(OCc3ccccc3)=CC2=O)[C@@H]1O` (relative stereo) displayed a melting point of 248 °C.

As to `COc1c(Cl)c(F)cc2c(=O)c(C(=O)O)cn(C3CC3)c12`, the melting point was in the range of 195 to 199 °C. For `N#Cc1ccc(CCCCC(=O)O)cc1` the value was 101 to 102 °C; for `CC(=NOCc1ccc(Cl)s1)C1=C(O)CC(C2CCCSC2)CC1=O` (stereo not given), 154 to 155 °C.
